# According to PMC6707405, “Screening Bioactive Compounds of Siraitia grosvenorii by Immobilized β2-Adrenergic Receptor Chromatography and Druggability Evaluation” (Frontiers in Pharmacology, 2019):
# Like-named read-outs stand apart in the source and are kept apart here.
# Assays:
# immobilized β2-AR = immobilized β2-AR (Homo sapiens, UniProt P07550)
# [1] = system: rat tracheal smooth muscle pre-contracted by high K+ solution; test: Relaxation of isolated rat tracheal strips pre-contracted by high K+ solution, with or without ICI 118551; format: cell-based; settings: 0.1 μM to 1.0 mM, high K+ (60 mM) pre-contracted
# Experimental: The potential β2-AR-mediating relaxant mechanisms of the compound were also evaluated in the absence and presence of a specific inhibitor. This was performed with the scarification of rats weighing 250–300 g by exsanguination from the abdominal aorta. We collected the tracheal tissues between the larynx and the lungs and immediately immersed them in cold oxygenated Krebs solution (118 mM NaCl, 4.8 mM KCl, 2.5 mM CaCl2, 1.2 mM MgSO4, 25 mM NaHCO3, 1.2 mM KH2PO4, and 9.8 mM glucose; pH 7.4). After the removal of adhesive tissues, we spirally isolated the tracheal segment with three cartilage rings to assay the tracheal strip reactivity. Such strips were mounted onto two L-shaped stainless-steel holders connected with a force–displacement transducer. The isometric tension was determined in a tissue bath by a PowerLab data acquisition system.
# We aerated the pre-warmed Krebs solution (37°C) with a gas mixture of 95% O2 and 5% CO2. At initial tests, the tracheal strips with tensions of 1.0-g mass were equilibrated for 60 min. The resulting strips were stimulated with high-potassium (K^+) solution (63 mM NaCl, 60 mM KCl, 2.5 mM CaCl2, 1.2 mM MgSO4, 25 mM NaHCO3, 1.2 mM KH2PO4, and 9.8 mM glucose; pH 7.4) to evoke a contractile response in the presence or absence of ICI 118551 (10 μM). […]
# [2] = Stability of mogroside V in rat plasma (QC samples, HPLC-MS/MS); format: in vitro ADME; settings: for Short term Stability (%): room temperature 14 h; for Long term Stability (%): −20°C 1 month; for Freeze–thaw Stability (%): three freeze (−20°C) and thaw cycles
# Experimental: The stability of mogroside V in plasma was evaluated at three QC levels in six replicates under varieties of storing and processing conditions. The results of the peak area of QC samples were compared with those from freshly prepared standard samples. The QC samples with recoveries of 85–115% were defined as having good stability under the desired conditions. Short-term stability was assessed after QC samples were saved at room temperature for 14 h. Subsequently, freeze–thaw stability was assessed after three freeze (−20°C) and thaw (room temperature) cycles of QC samples. Long-term stability was examined after QC samples were saved at −20°C for 1 month.
# [3] = Pharmacokinetic study in rats after oral administration (HPLC-MS/MS); format: in vivo, Sprague–Dawley (SD) rats; settings: mogroside V 200 mg/kg or LHG extract 12.5 ml/kg
# Experimental: Male Sprague–Dawley (SD) rats (240 ± 20 g) were purchased from the Experimental Animal Center of Xi’an Jiaotong University (Xi’an, China). The animals were maintained in a room under controlled temperature (24 ± 1°C) and humidity (50–70%) with 12-h light/dark cycle. The rats were fed with standard laboratory food and acclimatized to the environment for a week before the experiment. All animals were treated in accordance with the Guide for the Care and Use of Laboratory Animals under the approval of the Animal Experimentation Ethics Committee at Northwest University.
# All the plasma samples were analyzed on an Inertsil ODS-3-C18 column (5 μm, 4.6 mm × 150 mm). The mobile phase for quantitative determination of mogroside V in rat plasma consisted of 29% acetonitrile/0.2% (v/v) formic acid at a flow rate of 0.6 ml/min. The injection volume was 20 μl under a detection wavelength of 203 nm.
# The optimized mass conditions include the following: capillary voltage of 3,500 V, drying gas of 8 L/min at 350°C, nebulizer pressure of 40 psi at 350°C, and ion scan range of 100–2,000 amu. Under these conditions, multi-reaction monitoring (MRM) mode was carried out to specifically and sensitively detect the mogroside V. The mass transitions were m/z 1,285.6 → 1,123.6 for mogroside V and m/z 931.3 → 637.5 for IS (notoginsenoside R1).
# An aliquot of 10 μl of IS working solution was added into an aliquot of 90 μl of plasma samples. Vortexing the mixture for 2.0 min, we centrifuged the plasma for 10 min with a speed of 12,000 rpm at a temperature of 4°C. The supernatant was collected and transferred to another 0.5-ml centrifuge tube and then blow dried with nitrogen. We applied 200 μl of methanol to redissolve it, which was used for analysis.
# Eighteen rats were randomly divided into three groups of six for each group, including blank control, mogroside V, and LHG groups. The blank group was orally administered with normal saline. The other two groups were administered with mogroside V at a dose of 200 mg/kg and LHG aqueous extraction at a dose of 12.5 ml/kg (equivalent to 200 mg/kg mogroside V). Blood samples were collected in heparin sodium vacutainers at post-dose 5, 15, 30, 45, 60, 90, 120, 240, 360, 480, and 720 min. The plasma was pre-treated by centrifugation and frozen at −80°C until further analysis. The pharmacokinetic parameters including the area under curve (AUC0–720, and AUC0–∞), the maximum plasma concentration (Cmax), the time to achieve maximum plasma concentration (T max), and the elimination half-life (t 1/2z) were calculated by Drug and Statistics 3.0.0 software (DAS, T. C. M., Shanghai, China). All data were recorded as the mean ± standard deviation (SD), and the 95% confidence interval was also estimated when necessary.
# [4] = cited from earlier work
# cough of mice = settings: ref Liu et al., 2007; cited from earlier work
# mice trachea = system: mice trachea; design: method as in Liu et al., 2007; settings: ref Liu et al., 2007; cited from earlier work
# ileum and trachea = system: ileum and trachea; design: method as in Liu et al., 2007; settings: histamine-induced; ref Liu et al., 2007; cited from earlier work
# [5] = dose 200 mg/kg, ref Qin et al. (2006); cited from earlier work
# [6] = male, Sprague-Dawley, rat, in vivo, mogroside V in plasma
# Chain of immobilized β2-AR (P07550 whole entry): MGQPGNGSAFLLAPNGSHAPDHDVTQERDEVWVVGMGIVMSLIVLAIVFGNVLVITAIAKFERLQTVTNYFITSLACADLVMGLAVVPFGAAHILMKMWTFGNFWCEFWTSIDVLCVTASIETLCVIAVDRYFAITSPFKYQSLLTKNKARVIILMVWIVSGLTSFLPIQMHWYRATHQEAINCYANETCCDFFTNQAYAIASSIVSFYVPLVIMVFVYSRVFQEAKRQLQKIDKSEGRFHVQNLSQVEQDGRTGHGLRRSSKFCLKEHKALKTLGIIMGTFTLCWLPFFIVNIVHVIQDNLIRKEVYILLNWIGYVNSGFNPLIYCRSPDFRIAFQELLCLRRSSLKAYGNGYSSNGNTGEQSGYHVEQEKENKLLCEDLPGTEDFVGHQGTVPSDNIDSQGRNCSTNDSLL
smiles,measurement,setting,value
"O=N[O-].[Na+] [sodium nitrite, Sodium nitrite]",retention time on immobilized β2-AR column,immobilized β2-AR,0.7 min
C[C@H](CC[C@@H](O[C@@H]1O[C@H](CO[C@@H]2O[C@H](CO)[C@@H](O)[C@H](O)[C@H]2O)[C@@H](O)[C@H](O)[C@H]1O[C@@H]1O[C@H](CO)[C@@H](O)[C@H](O)[C@H]1O)C(C)(C)O)[C@H]1CC[C@@]2(C)[C@@H]3CC=C4[C@@H](CC[C@H](O[C@@H]5O[C@H](CO[C@@H]6O[C@H](CO)[C@@H](O)[C@H](O)[C@H]6O)[C@@H](O)[C@H](O)[C@H]5O)C4(C)C)[C@]3(C)[C@H](O)C[C@]12C [Mogroside V],relaxation of tracheal strips,[1]; absence of ICI 118551,concentration-dependent manner
same,relaxation of tracheal strips,[1]; presence of ICI 118551 (10 μM),disappeared
same,Short term Stability (%),"[2]; rat plasma, 30 ng/ml added",94.8%
same,Long term Stability (%),"[2]; rat plasma, 30 ng/ml added",94.4%
same,Short term Stability (%),"[2]; rat plasma, 500 ng/ml added",94.8%
same,Freeze–thaw Stability (%),"[2]; rat plasma, 500 ng/ml added",95.4%
same,Long term Stability (%),"[2]; rat plasma, 500 ng/ml added",93.8%
same,Short term Stability (%),"[2]; rat plasma, 5,000 ng/ml added",93.2%
same,Freeze–thaw Stability (%),"[2]; rat plasma, 5,000 ng/ml added",96.6%
same,Long term Stability (%),"[2]; rat plasma, 5,000 ng/ml added",92.2%
same,Cmax,[3]; [6],1330 ng/mL
same,Tmax,[3]; [6],0.75 h
same,half-life,"[3]; male, Sprague-Dawley, rat, in vivo, mogroside V in plasma, read-out: t1/2z",2.31 ± 0.22 h
same,peak plasma concentration,[3],"1,330.6 ± 132.2 ng/ml"
same,"retention time of LHG extract peak on immobilized β2-AR column, identified as mogroside V","immobilized β2-AR; ammonium acetate buffer (5 mM, pH = 7.4), 0.2 ml/min, 203 nm, void time 0.7 min",4.3 min
same,detection in rat plasma,"[4]; oral administration, dose increased to 5 mg/kg, ref Luo, 2017",disappears
same,detection in rat plasma,"[4]; tail intravenous injection (1.12 or 2.0 mg/kg) and intraperitoneal administration (1.12 mg/kg), ref Zhou et al., 2018",detectable
same,cough times of mice,cough of mice,reducing the cough times
same,incubation period for cough of mice,cough of mice,prolonged
same,phenol red excretion of mice trachea,mice trachea,effective for extending
same,spasmodic contraction of the ileum and trachea caused by histamine,ileum and trachea,obvious capability to antagonize
same,toxicity after oral administration,[5],nontoxic
COc1cc2nc(N3CCN(C(=O)C4CCCO4)CC3)nc(N)c2cc1OC (stereo not drawn) [terazosin],retention time on immobilized β2-AR column,"immobilized β2-AR; mobile phase ammonium acetate (5 mM, pH = 7.4), each injected three times",1.0 min
